Tests used:
human SHIP1 Ptase‐C2 = molecular target: T1, human SHIP1 Ptase‐C2 (Homo sapiens, UniProt Q92835); assay: Malachite green enzyme assay, hSHIP1^395‐898 Ptase‐C2, substrate PtdIns; assay type: biochemical
T1 sequence (Q92835 395-898): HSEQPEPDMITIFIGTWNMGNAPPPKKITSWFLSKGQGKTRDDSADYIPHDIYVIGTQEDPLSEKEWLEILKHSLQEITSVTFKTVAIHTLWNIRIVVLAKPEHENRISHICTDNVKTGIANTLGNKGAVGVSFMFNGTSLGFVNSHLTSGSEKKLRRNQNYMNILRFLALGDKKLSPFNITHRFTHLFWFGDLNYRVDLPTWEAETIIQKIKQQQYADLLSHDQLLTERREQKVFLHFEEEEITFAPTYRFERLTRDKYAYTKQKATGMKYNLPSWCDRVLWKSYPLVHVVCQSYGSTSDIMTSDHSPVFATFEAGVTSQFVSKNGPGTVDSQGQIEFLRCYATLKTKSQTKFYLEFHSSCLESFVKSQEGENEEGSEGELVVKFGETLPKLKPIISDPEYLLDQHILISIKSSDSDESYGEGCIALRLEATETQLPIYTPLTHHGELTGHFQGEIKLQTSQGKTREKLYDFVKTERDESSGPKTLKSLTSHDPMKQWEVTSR

[1] = molecular target: T2, HiBit‐SHIP1 (full‐length human SHIP1) (Homo sapiens, UniProt Q92835); assay: SplitLuc cellular thermal shift assay; assay type: cell-based; details: for CETSA % (percent luminescence at the highest dose): highest dose (100 μM); for CETSA TE (target engagement): significant if difference from control at highest dose >3SD
T2 sequence (Q92835 1-1189): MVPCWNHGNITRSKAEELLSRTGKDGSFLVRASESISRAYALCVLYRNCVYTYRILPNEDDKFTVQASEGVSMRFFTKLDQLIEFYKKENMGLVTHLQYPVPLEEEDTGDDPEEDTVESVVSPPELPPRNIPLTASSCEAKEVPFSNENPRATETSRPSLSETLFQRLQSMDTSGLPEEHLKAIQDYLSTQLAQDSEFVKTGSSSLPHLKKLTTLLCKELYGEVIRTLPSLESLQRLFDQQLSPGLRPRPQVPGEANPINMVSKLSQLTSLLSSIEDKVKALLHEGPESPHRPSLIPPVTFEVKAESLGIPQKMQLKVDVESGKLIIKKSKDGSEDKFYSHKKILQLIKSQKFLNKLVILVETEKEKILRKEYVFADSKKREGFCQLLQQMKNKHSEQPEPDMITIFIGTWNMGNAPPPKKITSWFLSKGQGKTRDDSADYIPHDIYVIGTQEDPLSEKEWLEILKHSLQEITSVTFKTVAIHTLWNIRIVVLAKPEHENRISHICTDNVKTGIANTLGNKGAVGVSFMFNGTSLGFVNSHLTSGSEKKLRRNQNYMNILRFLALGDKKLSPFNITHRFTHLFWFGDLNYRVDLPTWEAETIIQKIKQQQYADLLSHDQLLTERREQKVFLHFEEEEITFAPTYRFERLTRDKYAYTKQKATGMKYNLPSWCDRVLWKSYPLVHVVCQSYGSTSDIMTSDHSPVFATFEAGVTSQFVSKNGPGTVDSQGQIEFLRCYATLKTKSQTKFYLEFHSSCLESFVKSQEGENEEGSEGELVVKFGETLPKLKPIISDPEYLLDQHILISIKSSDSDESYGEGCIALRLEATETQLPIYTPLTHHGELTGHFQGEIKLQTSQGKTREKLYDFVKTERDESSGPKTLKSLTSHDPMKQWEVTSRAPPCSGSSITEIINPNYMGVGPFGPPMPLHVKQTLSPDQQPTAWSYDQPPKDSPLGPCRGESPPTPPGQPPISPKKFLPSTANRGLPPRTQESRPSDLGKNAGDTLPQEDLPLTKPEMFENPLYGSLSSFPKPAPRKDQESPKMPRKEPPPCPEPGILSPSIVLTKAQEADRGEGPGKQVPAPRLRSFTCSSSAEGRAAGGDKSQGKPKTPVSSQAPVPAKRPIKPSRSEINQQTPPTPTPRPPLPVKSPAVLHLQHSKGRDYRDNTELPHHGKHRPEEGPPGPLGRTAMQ

primary mouse microglia = assay: High‐content imaging phagocytosis assay in primary mouse microglia; assay type: cell-based
HMC3 cells = assay: High‐content imaging assay; assay type: cell-based
BV2 cells = assay: High‐content imaging assay; assay type: cell-based, mouse

IC50 (human SHIP1 Ptase‐C2) [µM]	CETSA % (percent luminescence at the highest dose) [1]	CETSA TE (target engagement) [1]	EC50 (primary mouse microglia; Mus musculus, Microglia, read-out: phagocytosis EC50) [µM]	AC50 [1] [µM]	Compound	increased phagocytosis (primary mouse microglia; primary mouse microglia from neonate mice) [fold]	cellular phenotype in high‐content imaging (in words) (HMC3 cells)	cellular phenotype in high‐content imaging (in words) (BV2 cells)
251	27 ± 15 (3) %	Yes	0.54		Clc1ccc(COc2cncc(-c3cnn(C4CCNCC4)c3)c2)c(Cl)c1 [Compound 23, 3‐((2,4‐Dichlorobenzyl)oxy)‐5‐(1‐(piperidin‐4‐yl)‐1H‐pyrazol‐4‐yl)pyridine, reference compound]	1.5		
201					CC(C)CCC[C@@H](C)[C@H]1CC[C@H]2[C@@H]3CCC4C[C@H](N)CC[C@]4(C)[C@H]3CC[C@]12C (stereo partly drawn) [Compound 13, 3α‐aminocholestane, reference compound]			
26.8	63 ± 12 (2) %	Yes		173	CC(C)c1ccc(C2C(C#N)=C3N=C(N)c4ccccc4N3C3=C2C(=O)CCC3)cc1 (stereo not shown) [Compound 3]			
18.6	30 ± 7 (2) %	Yes		46 ± 5	CC(=O)C1=C(C)Nc2sc(C(=O)c3ccc(Cl)c(Cl)c3)c(N)c2C1c1cccnc1 (stereo not shown) [Compound 2]		inactive	inactive

Reference: publication PMC10655782 (Alzheimer's & Dementia : Translational Research & Clinical …, 2023)
